{"source": "patent US11000568B2", "about": "“Means and methods for treating copper-related diseases” (HELMHOLTZ ZENTRUM MÜNCHEN—DEUTSCHES FORSCHUNGSZENTRUM FÜR …, priority 2015, dated 2021)", "key": {"[1]": {"system": "diseased LPP−/− rats", "assay": "Acute rescue regimen in diseased LPP−/− rats", "type": "in vivo, rat"}, "[2]": {"system": "HepG2 cells", "assay": "Cellular de-coppering of HepG2 cells (ICP-OES)", "type": "cell-based", "procedure": "HepG2 cells were kept in MEM with 2% FCS. […] Therefore, Zn-MB, generated by preparing a 20 mM MB solution and adding an equimolar concentration of Zn solution under pH control, was used in cell culture experiments.\nTo determine the cellular de-coppering efficiency of MB, cells were pretreated with 2% FCS containing medium or 15 μM copper-histidine for 24 h and subsequently subjected to a 24 h treatment with 500 μM MB. Thereafter, cells were washed two times and counted. Copper in 2.5×10^6 cells was determined by ICP-OES after wet ashing of samples with 65% nitric acid.\n(§1) Copper in liver homogenates, cell lysates and mitochondrial preparations were analyzed by ICP-OES (Ciros Vision, SPECTRO Analytical Instruments GmbH) after wet ashing of samples with 65% nitric acid (Zischka et al., log. cit.)."}, "[3]": {"system": "LPP−/− rats", "assay": "Short-term in vivo treatment of LPP−/− rats", "design": "species or system rat", "procedure": "LPP rats were treated with MB either by daily i.p. injections for 3 or 5 consecutive days, or twice daily i.p. injections for 8 consecutive days at a dose of 150 mg/kg bw or 4 days via the drinking water with D-PA at a dose of 100 mg/kg bw/d or TETA at 480 mg/kg bw/d, respectively (Togashi et al., Hepatology 15, 82-87 (1992)). Based on a mean copper content of 250 μg/g w.w. in Atp7b−/− rat livers at the age of treatment start (Zischka et al., log. cit.), a LPP−/− rat liver of 8 g w.w. contains around 31.5 μmol copper. Single MB doses were chosen equimolar to this copper amount. […] Assuming 40 ml water intake per day for a rat weighing 250 g this translates to a dose of 480 mg/kg bw/d. With respect to the mean liver copper content in LPP−/− rats aged 85 days, the molar ratios of the chelators applied was MB 1:D-PA 4.3:TETA 17.4, respectively. For the intravenous MB application (150 mg/kg bw), catheters connected to a PinPort™ (Instech Laboratories, Inc., USA) were inserted in the femoral vein of the rat, fixed with non-absorbable sutures and subcutaneously tunneled and exteriorized through a skin incision made between the shoulders.\nFormalin-fixed, paraffin-embedded liver samples were cut into 4 μm-thick sections and either stained with hematoxylin and eosin for standard analyses or with Masson trichrome for analysis of fibrotic tissue. AST activity and bilirubin concentration in animal plasma or serum were measured with a Reflotron system (Roche).\nas §1\nThe efficiency of a short-term MB treatment schedule was assessed in LPP−/− rats at the age of liver disease onset (85-90 days). Animals received MB (i.p.) either for 3 or 5 days or the clinically used copper chelators D-PA or TETA, which were orally administered for 4-days."}, "[4]": {"system": "WD patient-derived hepatocyte like (HLC) cells", "assay": "De-coppering of WD patient-derived hepatocyte like cells (HLC)", "type": "cell-based, human", "conditions": "Cu-histidin 15 μM 24 h, then MB 300 μM 24 h", "procedure": "Urinary epithelial cells were pelleted at 400×g for 10 min from freshly donated mid-stream urine (Zhou et al., J Am Soc Nephrol 22, 1221-1228 (2011)). Cells were cultured in urinary cell medium (UCM) consisting of Dulbecco's modified Eagle medium/Ham's F-12 culture medium (DMEM/F12, Lonza) supplemented with 10% fetal bovine serum (FBS, PAA), 0.1 mM non-essential amino acids (NEAA, Sigma), 0.1 mM β-mercaptoethanol, 1 mM GlutaMAX (Life Technologies), and SingleQuot Kit CC-4127 REGM (Lonza). Urinary epithelial cells were reprogrammed by nucleofection of episomal expression vectors pCXLE-hOCT3/4-shp53-F, pCXLE-hSK, and pCXLE-hUL (Addgene) using the Amaxa Basic Nucleofector Kit (Lonza, VPI-1005). iPS cells (iPSCs) were maintained on Matrigel-coated plates in mTeSR cell culture medium and dissociated with 1 U/ml dispase (Stem Cell Technologies) into small clusters and subcultured every 5 to 7 days. WD iPSCs were differentiated into hepatocyte-like cells (HLCs) by a modification of the method reported previously (Basma et al., Gastroenterology 136, 990-999 (2009)). […] iPSCs were plated in single cells onto 6-well plates precoated with Matrigel. […]\nHLCs were incubated at day 14 with Cu-histidin (15 μM) for 24 h in a 6 well plate. […] After 24 h incubation, washed cells were collected, counted and their copper content assessed."}, "[5]": {"system": "HepG2 cells", "assay": "Neutral red cell toxicity assay", "type": "cell-based", "conditions": "24 hours, 0.05 to 1 mM Zinc-MB", "procedure": "Neutral red cell toxicity assay was done as described elsewhere (Repetto et al., Nat Protoc 3, 1125-1131 (2008)). In brief, 2×10^4 cells were incubated for 24 hours either with medium alone (containing 2% FCS, negative control), 0.05 to\n1 mM Zinc-MB, or 0.25 mM CCCP as mitochondriotoxic positive control and subsequently analyzed by neutral red."}, "[6]": {"target": "mitochondrial respiratory complex IV (Rattus norvegicus, UniProt P00406+P05503)", "sequence (P00406 whole entry, other chains not shown)": "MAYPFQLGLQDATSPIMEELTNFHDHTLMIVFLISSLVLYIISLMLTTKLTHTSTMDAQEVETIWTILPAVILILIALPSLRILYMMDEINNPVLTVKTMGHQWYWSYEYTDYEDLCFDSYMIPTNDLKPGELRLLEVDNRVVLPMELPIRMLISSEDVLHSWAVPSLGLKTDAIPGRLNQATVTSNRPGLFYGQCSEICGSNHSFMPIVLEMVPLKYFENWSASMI"}, "[7]": {"system": "LPP−/− mitochondria", "assay": "Chelator treatment of freshly isolated copper burdened LPP−/− mitochondria (copper extraction)", "design": "species or system rat", "conditions": "2 mM each, 30 min incubation"}, "[8]": {"conditions": "MB i.p. 3 or 5 days, D-PA or TETA 4 days"}, "[9]": {"conditions": "i.v. MB daily, five consecutive days"}}, "note": "“Also recorded” adds a separate entry of the source. Numbered stars: 1 amine (or outer) side, 2 acyl side, 3 side chain; on linkers, the order of the positions; unused ones are H or OH. Bridge positions count the residues as written; N and C are the ends. Square brackets hold non-standard residues; d marks the D form. Peptide text beside a SMILES is read from it. * marks the point of attachment. X2 = O=C1OC(C2CCCN2[*:1])=NC1C(=S)NC(CO)C(=O)[*:2]; X1 = CC(C)CC(=O)C1=NC(C(=S)NCC(=O)*)C(=O)O1"}
{"smiles": "CSCCC(NC(=O)C1CSSCC(NC(=O)C(CO)NC(=O)CNC(=S)C2N=C(C(=O)CC(C)C)OC2=O)C(=O)NC(Cc2ccc(O)cc2)C(=O)N2CCCC2C2=NC(C(=O)O2)C(=S)NC(CO)C(=O)N1)C(=O)O", "note": "(stereo not shown) [MB] (X1-SCY[X2]CM-OH; disulfide 2-5; configuration not given here)", "values": [{"measurement": "body weight", "setting": "[1]; 16 i.p. injections", "result": "regained weight"}, {"measurement": "copper values", "setting": "[1]; end of treatment regimen", "result": "exceptionally low copper values"}, {"measurement": "serum AST and bilirubin", "setting": "[1]; end of treatment regimen", "result": "normal serum AST and bilirubin"}, {"measurement": "weight regained", "setting": "[1]; moribund animal no. 3", "result": 29, "unit": "%"}, {"measurement": "survival", "setting": "[1]; two daily MB i.p. injections for one week (16 in total), four rats", "result": "All animals survived"}, {"measurement": "de-coppering of copper preloaded HepG2 cells", "setting": "[2]; 24 h MB treated vs untreated control", "result": "highly efficiently de-coppered"}, {"measurement": "reduction of copper in HepG2 cells", "setting": "[2]; basic copper load, 24 h 500 μM MB (Zn-MB used in cell culture)", "result": 50, "unit": "%"}, {"measurement": "reduction of copper in HepG2 cells", "setting": "[2]; preloaded with 15 μM copper-histidine 24 h, then 24 h 500 μM MB", "result": 50, "unit": "%"}, {"measurement": "histopathological liver damage", "setting": "[3]; MB 150 mg/kg bw i.p. daily 3 or 5 days, D-PA 100 mg/kg bw/d or TETA 480 mg/kg bw/d oral 4 days", "result": "strong reduction of histopathological liver damage markers"}, {"measurement": "duration of normal serum AST on MB drug holiday", "setting": "[3]; MB five days, then drug holiday, zinc enriched food (1000 ppm)", "result": "at least two weeks"}, {"measurement": "body weight", "setting": "[3]; MB i.p. 3 or 5 days", "result": "regained body weight"}, {"measurement": "mitochondrial copper", "setting": "[3]; [8]", "result": "significant reduction at the mitochondrial copper level"}, {"measurement": "serum AST levels", "setting": "[3]; [8]", "result": "markedly decreased"}, {"measurement": "whole liver copper", "setting": "[3]; [8]", "result": "progressive reduction in total liver copper; also recorded: progressive but minor reduction at the whole liver copper level"}, {"measurement": "serum AST", "setting": "[3]; after 5 days of MB treatment, two onset and one diseased rat", "result": "< 200", "unit": "U/L"}, {"measurement": "severely impaired mitochondria (type 4) in isolates", "setting": "[3]; electron microscopy, short-term treatment", "result": "almost absent"}, {"measurement": "body weight", "setting": "[3]; i.v. MB 150 mg/kg bw daily, five consecutive days", "result": "All animals regained bodyweight"}, {"measurement": "AST or bilirubin levels", "setting": "[3]; [9]", "result": "levels returned to normal"}, {"measurement": "copper content of whole liver and purified mitochondria", "setting": "[3]; [9]", "result": "profound reduction in copper content"}, {"measurement": "mitochondrial copper load", "setting": "[3]; one week: 5× MB i.p., 5× MB i.v., 16× MB i.p.", "result": "drastically reduce the mitochondrial copper load"}, {"measurement": "ATP production of isolated mitochondria", "setting": "[3]; short term MB treatments", "result": "reverse this impairment"}, {"measurement": "de-coppering of copper preloaded HLC", "setting": "[4]", "result": "Comparable copper depletions; also recorded: highly efficiently de-coppered"}, {"measurement": "cytotoxic effects (neutral red)", "setting": "[5]", "result": "only observed at millimolar MB concentrations"}, {"measurement": "toxicity to copper-dependent respiratory complex IV activity", "setting": "[6]", "result": "significantly less toxic than TTM"}, {"measurement": "copper associated with LPP−/− mitochondria", "setting": "[7]", "result": "rapidly decreased copper"}]}
